Consider 17 molecules from patent publication US5441932A, “Sugar compounds for inhibition of the biosynthesis of sugar chains containing sialic acid” (priority 1992, dated 1995).

Entries after “also recorded” stand apart in the source; their conditions may differ.

Series [1] in a line: Solubility (physical properties). It is filed as physicochemical. Particulars: qualitative, in words.
Series [2] has as its target β-galactoside-α-2, 6-sialyltransferase. The experiment in a line: Inhibition of β-galactoside-α-2,6-sialyltransferase enzyme activity (biosynthesis of sugar chains containing sialic acid, test system of Paulson et al.). Particulars: β-galactoside-α-2,6-sialyltransferase 1×10^-6 units, 0.075 nmol CMP-14C sialic acid, 3 mM β-methyllactosaminide, pH 6.5, 37° C., 10 minutes; read-out: 50% activity inhibition concentration. It is filed as biochemical.
Experimental: In other words, the tests were conducted using a test system of the biosynthesis of sialic acid-sugar chains containing sialic acid which was reported by Paulson et al.
A tester solution was prepared containing the following respective reagents in 50 μl of final contents:
100 mM sodium cacodylate buffer solution (pH 6.5);
0.075 nmol cytidine-monophosphate-14C sialic acid;
3 mM β-methyllactosaminide;
A specimen compound was added in 50 μl of the tester solution, and, with addition of 1×10^-6 units of β-galactoside-α-2, 6-sialyltransferase commercially available, the mixture was left to stand at 37° C. for 10 minutes. 1 ml of 5 mM phosphoric acid buffer solution was added to stop the reaction. Then the solution was passed through an anion-exchange resin column (Dowex-1X8, phosphoric acid type, 1 ml) to remove unreacted cytidine-monophosphate-14C sialic acid. Further, the column was washed with 1 ml of 5 mM phosphoric acid buffer solution to recover radioactive sialic acid-containing sugar chains. The radioactivity was measured by a liquid scintillation counter.
The thus-measured radioactivity was shown by percentage to the radioactivity of untreated section not including the specimen compound, which was defined as inhibition activity.

A short description of series [3]: Stability in acid (physical properties). Format: physicochemical.

In the case of `CO[C@@H]1O[C@H](CO)[C@@H](O[C@@H]2O[C@H](C)[C@H](O)[C@H](O)[C@H]2O)[C@H](O)[C@H]1NC(C)=O` [Sugar compound A, methyl-2-acetamide-2-deoxy-4-O-(6-deoxy-β-D-galactopyranosyl)-β-D-glucopyranoside], the Solubility result in series [1] is “Soluble in water, alkaline solutions, acid solutions, various buffer solutions, methanol, and ethanol. Hardly soluble in hexane and in chloroform”.

Turning to `CC(=O)N[C@H]1C(O)O[C@H](CO)[C@@H](O[C@@H]2O[C@H](C)[C@H](O)[C@H](O)[C@H]2O)[C@@H]1O` (stereo partly drawn) [Sugar compound B, α- and β-2-acetamide-2-deoxy-4-O-(6-deoxy-β-D-galactopyranosyl)-D-glucose], in series [1], the Solubility result was “Soluble in water, alkaline solutions, acid solutions, various buffer solutions, methanol, and ethanol. Hardly soluble in hexane and in chloroform”.

For “2-acetamide-2-deoxy-4-O-( 6-deoxy-β-D-galactopyranosyl)-β -D-glucopyranosylated fetuin [Sugar compound D]”, the IC50 in series [2] was 4.2 µM. Further, in series [1], the Solubility entry is “Soluble in water and various buffer solutions. Hardly soluble in organic solvents”.

Take `CO[C@@H]1O[C@H](CO)[C@@H](O[C@@H]2O[C@H](CS)[C@H](O)[C@H](O)[C@H]2O)[C@H](O)[C@H]1NC(C)=O` [Sugar compound H, methyl-2-acetamide-2-deoxy-4-O-(6-mercapto-β-D-galactopyranosyl)-β-D-glucopyranoside]: the Solubility result in series [1] was “Soluble in water, alkaline solutions, acid solutions, various buffer solutions, methanol, and ethanol. Hardly soluble in hexane and in chloroform”.

Consider “2-acetamide-2-deoxy-4-O-(6-deoxy-β-D-galactopyranosyl)-β-D-glucopyranosylated α2-macroglobulin [Sugar compound F]”, for which, in series [2], the IC50 turned out to be 1 µM. The Solubility entry in series [1] is “Soluble in water and various buffer solutions. Hardly soluble in organic solvents”.

For `CO[C@@H]1O[C@H](COC(C)=O)[C@@H](O[C@@H]2O[C@H](CO)[C@H](OC(C)=O)[C@H](OC(C)=O)[C@H]2OC(C)=O)[C@H](OC(C)=O)[C@H]1NC(C)=O` [intermediate f, methyl-2-acetamide-3,6-di-O-acetyl-2-deoxy-4-O-(2,3,4-tri-O-acetyl-β-D-galactopyranosyl)-β-D-glucopyranoside], the Solubility result in series [1] was “Soluble in chloroform, methanol, and ethanol. Hardly soluble in water and various buffer solutions”.

Consider `CO[C@@H]1O[C@H](COC(C)=O)[C@@H](O[C@@H]2O[C@@H]3COC(c4ccccc4)O[C@@H]3[C@H](OC(C)=O)[C@H]2OC(C)=O)[C@H](OC(C)=O)[C@H]1NC(C)=O` (stereo partly drawn) [intermediate c, methyl-2-acetamide-3,6-di-O-acetyl-2-deoxy-4-O-(2,3-di-O-acetyl-4,6-O-benzylidene-β-D-galactopyranosyl)-β-D-glucopyranoside], for which, in series [1], the Solubility result was “Soluble in chloroform, methanol, and ethanol. Hardly soluble in water and various buffer solutions”.

“2-acetamide-2-deoxy-4-O-(6-deoxy-β-D-galactopyranosyl)-β-D-glucopyranosylated ovalbumin [Sugar compound C, sugar compound represented by the aforementioned formula (1) in which R^1 is ovalbumin and R^2 is hydrogen]”: in series [2], the IC50 is 10 µM.

For the molecule `CO[C@@H]1O[C@H](COC(C)=O)[C@@H](O[C@@H]2O[C@H](COC3CCCCO3)[C@H](OC(C)=O)[C@H](OC(C)=O)[C@H]2OC(C)=O)[C@H](OC(C)=O)[C@H]1NC(C)=O` (stereo partly drawn) [intermediate g, methyl-2-acetamide-3,6-di-O-acetyl-2-deoxy-4-O-(2,3,4-tri-O-acetyl-6-O-tetrahydropyranyl-β-D-galactopyranosyl)-β-D-glucopyranoside], in series [1], the Solubility entry was “Soluble in chloroform, methanol, and ethanol. Hardly soluble in water and various buffer solutions”.

Take `CO[C@@H]1O[C@H](COC(C)=O)[C@@H](O[C@@H]2O[C@H](CSC(C)=O)[C@H](OC(C)=O)[C@H](OC(C)=O)[C@H]2OC(C)=O)[C@H](OC(C)=O)[C@H]1NC(C)=O` [intermediate i, methyl-2-acetamide-3,6-di-O-acetyl-2-deoxy-4-O-(2,3,4-tri-O-acetyl-6-S-acetyl-6-deoxy-β-D-galactopyranosyl)-β-D-glucopyranoside]: in series [1], the Solubility entry was “Soluble in chloroform, methanol, and ethanol. Hardly soluble in water and various buffer solutions”.

Regarding `C[C@H]1O[C@H](OP(=O)(O)OP(=O)(O)OC[C@H]2O[C@@H](n3ccc(=O)[nH]c3=O)[C@H](O)[C@@H]2O)[C@H](O)[C@@H](O)[C@H]1O` [intermediate b, uridine 5'-diphosphate-6-deoxy-D-galactose], the Solubility entry in series [1] was “Soluble in water, alkaline solutions, and various buffer solutions; also recorded: Hardly soluble in organic solvents”. Further, the Decomposition in acid result in series [3] is given as “Decomposed in acid”.

As for `CO[C@@H]1O[C@H](COC(C)=O)[C@@H](O[C@@H]2O[C@H](COS(=O)(=O)c3ccc(C)cc3)[C@H](OC(C)=O)[C@H](OC(C)=O)[C@H]2OC(C)=O)[C@H](OC(C)=O)[C@H]1NC(C)=O` [intermediate h, methyl-2-acetamide-3,6-di-O-acetyl-2-deoxy-4-O-(2,3,4-tri-O-acetyl-6-O-p-toluenesulfonyl-β-D-galactopyranosyl)-β-D-glucopyranoside], in series [1], the Solubility entry is “Soluble in chloroform, methanol, and ethanol. Hardly soluble in water and various buffer solutions”.

On to `CO[C@@H]1O[C@H](CO)[C@@H](O[C@@H]2O[C@H](COC3CCCCO3)[C@H](O)[C@H](O)[C@H]2O)[C@H](O)[C@H]1NC(C)=O` (stereo partly drawn) [Sugar compound G, methyl-2-acetamide-2-deoxy-4-O-(6-O-tetrahydropyranyl-β-D-galactopyranosyl)-β-D-glucopyranoside], for which the Solubility entry in series [1] was “Soluble in water, alkaline solutions, acid solutions, various buffer solutions, methanol, and ethanol. Hardly soluble in hexane and in chloroform”.

For the molecule `CO[C@@H]1O[C@H](COC(C)=O)[C@@H](O[C@@H]2O[C@H](CO)[C@H](O)[C@H](OC(C)=O)[C@H]2OC(C)=O)[C@H](OC(C)=O)[C@H]1NC(C)=O` [intermediate d, methyl-2-acetamide-3,6-di-O-acetyl-2-deoxy-4-O-(2,3-di-O-acetyl-β-D-galactopyranosyl)-β-D-glucopyranoside], the Solubility result in series [1] was “Soluble in chloroform, methanol, and ethanol. Hardly soluble in water and various buffer solutions”.

Consider `CO[C@@H]1O[C@H](COC(C)=O)[C@@H](O[C@@H]2O[C@H](CO[Si](C)(C)C(C)(C)C)[C@H](OC(C)=O)[C@H](OC(C)=O)[C@H]2OC(C)=O)[C@H](OC(C)=O)[C@H]1NC(C)=O` [intermediate e, methyl-2-acetamide-3,6-di-O-acetyl-2-deoxy-4-O-(2,3,4-tri-O-acetyl-6-O-t-butyldimethylsilyl-β-D-galactopyranosyl)-β-D-glucopyranoside], for which the Solubility result in series [1] is “Soluble in chloroform, methanol, and ethanol. Hardly soluble in water and various buffer solutions”.

B1: 2-acetamide-2-deoxy-4-O-(6-deoxy-β-D-galactopyranosyl)-β-D-glucopyranosylated ovalbumin (conjugate, UniProt P01012 2-386, looked up)
Ovalbumin: GSIGAASMEFCFDVFKELKVHHANENIFYCPIAIMSALAMVYLGAKDSTRTQINKVVRFDKLPGFGDSIEAQCGTSVNVHSSLRDILNQITKPNDVYSFSLASRLYAEERYPILPEYLQCVKELYRGGLEPINFQTAADQARELINSWVESQTNGIIRNVLQPSSVDSQTAMVLVNAIVFKGLWEKAFKDEDTQAMPFRVTEQESKPVQMMYQIGLFRVASMASEKMKILELPFASGTMSMLVLLPDEVSGLEQLESIINFEKLTEWTSSNVMEERKIKVYLPRMKMEEKYNLTSVLMAMGITDVFSSSANLSGISSAESLKISQAVHAAHAEINEAGREVVGSAEAGVDAASVSEEFRADHPFLFCIKHIATNAVLFFGRCVSP
modifications: glycosylated with fucosyl-GlcNAc disaccharide
notes: sugar compound represented by the aforementioned formula (1) in which R^1 is ovalbumin and R^2 is hydrogen
On to B1, for which, in series [1], the Solubility entry is “Soluble in water and various buffer solutions. Hardly soluble in organic solvents”.

B2: 2-acetamide-2-deoxy-4-O-(6-deoxy-β-D-galactopyranosyl)-β-D-glucopyranosylated glycophorin (conjugate, UniProt P02724 20-150, looked up)
Glycophorin-A: LSTTEVAMHTSTSSSVTKSYISSQTNDTHKRDTYAATPRAHEVSEISVRTVYPPEEETGERVQLAHHFSEPEITLIIFGVMAGVIGTILLISYGIRRLIKKSPSDVKPLPSPDTDVPLSSVEIENPETSDQ
modifications: glycosylated with fucosyl-GlcNAc disaccharide
notes: sugar compound represented by the aforementioned formula (1) in which R^1 is glycophorin and R^2 is hydrogen
With B2, the IC50 in series [2] turned out to be 2.7 µM. Moreover, the Solubility result in series [1] is “Soluble in water and various buffer solutions. Hardly soluble in organic solvents”.
